Measurements as given in US5427766A, “Radiolabeled steroids for use in radiochemical-guided surgery” (priority 1993, dated 1995).

Tests used:
Set-up in all cases: species or system athymic female NCR-Nu Mice
[1] = system: MCF-7(ER+) breast tumor xenografts; test: In vivo localization (biodistribution) in athymic female nude mice bearing subcutaneous MCF-7 tumor xenografts
Protocol: (§1) In vivo localization of 11β-ethyl-17α-(Z)-[^125 I](iodovinyl)estra-3,17β-diol (5) and a control compound 16α-[^125 I]iodovinyl-3,17β-estradiol (commercially available from DuPont New England Nuclear, MA) was determined in athymic female NCR-Nu Mice (purchased from Simonsen Laboratories, Gilroy, Calif.) bearing subcutaneous MCF-7(ER+) breast tumor xenografts. Prior to injection of the compounds, the mice were each implanted with fragments of MCF-7 breast tumor (approximately 2 cubic millimeters) in the subcutis of the left flank. At approximately the same time, a 1.7 mg estradiol pellet (Innovative Research of America, Toledo, Ohio) was implanted in the scapular region. The tumors were allowed to grow until they reached between 50 and 200 mg by visual inspection (approximately four to five weeks) prior to injection of the test compounds. One day prior to injection of the test compounds, the estradiol pellet was removed.
(§2) The mice were each injected via tail vein with between 3 (1.1×10^5 Bq) and 6 μCi ([…]) ^125 I in approximately 50 μL of phosphate buffered saline. The mice were sacrificed at various time intervals. After exsanguination, the selected organ/tissue were excised, weighed and radioactivity measured in a gamma counter. The counts per minute (cpm) of 125I in each tissue was determined and expressed as cpm per gram of tissue per injected dose multiplied by 100 (percent injected dose/gram).

[2] = system: MCF-7 tumors located intraperitoneally; test: In vivo localization (biodistribution) in athymic female nude mice bearing intraperitoneal MCF-7 tumors; conditions: for Percent Injected Dose/Gram, muscle: mouse, in vivo, ip
Protocol: as §1, §2
The procedure of Example 3 was followed except each mouse was inoculated intraperitoneally with MCF-7 breast carcinoma cell line (7.5×10^6 cell/50 μL) rather than implanted subcutaneously with MCF-7 breast tumor. One day prior to this procedure, a 1.7 mg estradiol pellet was implanted subcutaneously in the scapular region. The tumor cells were allowed to form solid tumor nodules for 4 to 6 weeks prior to injection of the test compounds.

[3] = system: MCF-7(ER+) breast tumor xenografts; test: In vivo biolocalization with gamma detecting probe, tumor/background ratio, MCF-7 (ER+) tumor; conditions: mouse, in vivo
Protocol: (§3) In vivo biolocalization of 11β-ethyl-17α-(Z)-[^125 I](iodovinyl)estra-3,17β-diol (5) and a control compound 16α-[^125 I](iodovinyl)-3,17β-estradiol was determined in athymic female NCR-Nu Mice bearing subcutaneous MCF-7(ER+) breast tumor xenografts and MDA-MB-231 (ER-) breast tumor xenografts. The mice were at least 5 weeks old prior to injection into the right-hand flank with […] of MCF-7 breast carcinoma cells ([…]). One day prior to this procedure, the mice were implanted subcutaneously with a 1.7 mg estradiol pellet in the scapular region. Four to six weeks post-injection of the MCF-7 cells the estradiol pellet was removed and the mice inoculated in the left hind flank with 75 μL NDA-MB-231 breast tumor cells ([…]). Seven to ten days prior to injection of the test compounds, an estradiol pellet was again implanted in the scapular region. One to two days prior to injection of the test compounds, the estradiol pellet was removed, and 5 mice arbitrarily assigned to each test group.
(§4) The mice were each injected via tail vein with between 3 ([…]) and […] ([…]) 125 iodine in approximately […] of phosphate-buffered saline. At various time intervals after injection of the test compounds, each group of mice was anesthetized with methoxyflurane in order to measure the radioactivity over the ER+ and ER- tumors and the front leg for use as a background and the thoraxic area which served as a blood pool control using a gamma detecting probe (RIGS ^TM Model 1001 control unit, Neoprobe Corporation, Columbus, Ohio). Three 20 to 60 second counts were recorded at each area measured at each time point.
(§5) ^c Tu/Bkg = Mean(1-5) of (mean tumor countsn - mean foreleg
(§6) background countsn)/mean foreleg background

[4] = system: MDA-MB-231 (ER-) breast tumor xenografts; test: In vivo biolocalization with gamma detecting probe, tumor/background ratio, MDA-MB-231 (ER-) tumor; conditions: mouse, in vivo
Protocol: as §3, §4, §5, §6

## CC[C@H]1C[C@@]2(C)[C@@H](CC[C@@]2(O)/C=C\[125I])[C@@H]2CCc3cc(O)ccc3[C@@H]12 [Compound 5, 11β-ethyl-17α-(Z)-[^125 I](iodovinyl)estra-3,17β-diol]
[1]; 48 hours post-injection, uteri and tumors, subcutaneous MCF-7
  radioactivity in the uteri and tumors: still contain a significant amount of radioactivity
[1]; Fat, 48 hours, tail vein, subcutaneous MCF-7, mean, n = 5
  Percent Injected Dose/Gram, fat: 0.00 Percent Injected Dose/Gram
[1]; 24 hours, tail vein, subcutaneous MCF-7, mean, n = 5
  Percent Injected Dose/Gram, muscle: 0.00 Percent Injected Dose/Gram
[1]; 48 hours, tail vein, subcutaneous MCF-7, mean, n = 5
  Percent Injected Dose/Gram, muscle: 0.00 Percent Injected Dose/Gram
[1]; subcutaneous MCF-7, conclusion in words
  binding affinity in vivo with retention of the targeted-site: high binding affinity in vivo with retention of the targeted-site
[2]; 48 hours post-injection, uteri and tumors, intraperitoneal MCF-7
  radioactivity in the uteri and tumors: still contain a significant amount of radioactivity
[2]; Fat, 48 hours, tail vein, intraperitoneal MCF-7, mean, n = 5
  Percent Injected Dose/Gram, fat: 0.00 Percent Injected Dose/Gram
[2]; intraperitoneal MCF-7, conclusion in words
  binding affinity in vivo with retention of the targeted-site: high binding affinity in vivo with retention of the targeted-site
[2]; 1440 min
  Percent Injected Dose/Gram, muscle: 0.00 Percent Injected Dose/Gram
[2]; 2880 min
  Percent Injected Dose/Gram, muscle: 0.00 Percent Injected Dose/Gram
[3]
  Tumor/Background Ratio (Tu/Bkg): 4.70 ± 1.85
  tumor to background ratios (in words): good tumor to background ratios
  tumor to background ratios / localization at the tumor site (in words): maintained a high tumor to background ratios
[3]; 120 min
  Tumor/Background Ratio (Tu/Bkg): 4.74 ± 2.04
[3]; 360 min
  Tumor/Background Ratio (Tu/Bkg): 7.32 ± 0.60
[3]; 1440 min
  Tumor/Background Ratio (Tu/Bkg): 3.53 ± 1.30
[3]; 2880 min
  Tumor/Background Ratio (Tu/Bkg): 1.79 ± 1.23
[4]
  Tumor/Background Ratio (Tu/Bkg): 2.44 ± 1.83
[4]; 120 min
  Tumor/Background Ratio (Tu/Bkg): 4.34 ± 1.37
[4]; 360 min
  Tumor/Background Ratio (Tu/Bkg): 4.44 ± 2.62
[4]; 1440 min
  Tumor/Background Ratio (Tu/Bkg): 0.87 ± 0.54
[4]; 2880 min
  Tumor/Background Ratio (Tu/Bkg): 0.03 ± 0.34
